Results as given in patent US11084809B2, “N-((HET)arylmethyl)-heteroaryl-carboxamides compounds as kallikrein inhibitors” (KALVISTA PHARMACEUTICALS LIMITED, priority 2014, dated 2021).
pIC50: −log10 of the molar value.

Columns and labels:
Type in all cases: biochemical
Human XIa = Human XIa (Homo sapiens (Human), UniProt P03951); assay: Determination of the % inhibition for XIa; settings: 40 μM test compound, 25° C.
Description: Determination of the % Inhibition for XIa
Human XIa (Enzyme Research Laboratories) was incubated at 25° C. with the fluorogenic substrate Z-Gly-Pro-Arg-AFC and 40 μM of the test compound. Residual enzyme activity (initial rate of reaction) was determined by measuring the change in optical absorbance at 410 nm.

Human KLK1 = Human KLK1 (Homo sapiens (Human), UniProt P06870); assay: Determination of the IC50 for KLK1; settings: human KLK1, 25° C., substrate H-DVal-Leu-Arg-AFC
Chain of Human KLK1 (P06870 25-262): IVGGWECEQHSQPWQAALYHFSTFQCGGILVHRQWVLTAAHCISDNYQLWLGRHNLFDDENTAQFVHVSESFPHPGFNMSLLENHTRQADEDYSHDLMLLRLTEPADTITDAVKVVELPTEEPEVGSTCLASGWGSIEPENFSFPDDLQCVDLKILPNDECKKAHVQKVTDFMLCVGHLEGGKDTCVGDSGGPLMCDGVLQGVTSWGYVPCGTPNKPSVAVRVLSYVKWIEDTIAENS
Description: Determination of the IC50 for KLK1
(§1) Human KLK1 (Callbiochem) was incubated at 25° C. with the fluorogenic substrate H-DVal-Leu-Arg-AFC and various concentrations of the test compound. Residual enzyme activity (initial rate of reaction) was determined by measuring the change in […] at 410 nm and the IC50 value for the test compound was determined.

Human plasma kallikrein = Human plasma kallikrein (Homo sapiens (Human), UniProt P03952); assay: Determination of the IC50 for plasma kallikrein; settings: read-out: IC50 (human PKal)
Chain of Human plasma kallikrein (P03952 391-638): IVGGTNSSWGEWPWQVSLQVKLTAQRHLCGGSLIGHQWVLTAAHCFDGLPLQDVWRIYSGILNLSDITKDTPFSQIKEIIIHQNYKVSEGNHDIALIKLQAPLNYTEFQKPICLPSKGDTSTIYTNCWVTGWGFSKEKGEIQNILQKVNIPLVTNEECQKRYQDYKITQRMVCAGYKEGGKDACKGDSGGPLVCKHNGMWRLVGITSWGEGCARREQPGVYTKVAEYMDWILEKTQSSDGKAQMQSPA
Chain of Human plasma kallikrein (P03952 20-390 partner): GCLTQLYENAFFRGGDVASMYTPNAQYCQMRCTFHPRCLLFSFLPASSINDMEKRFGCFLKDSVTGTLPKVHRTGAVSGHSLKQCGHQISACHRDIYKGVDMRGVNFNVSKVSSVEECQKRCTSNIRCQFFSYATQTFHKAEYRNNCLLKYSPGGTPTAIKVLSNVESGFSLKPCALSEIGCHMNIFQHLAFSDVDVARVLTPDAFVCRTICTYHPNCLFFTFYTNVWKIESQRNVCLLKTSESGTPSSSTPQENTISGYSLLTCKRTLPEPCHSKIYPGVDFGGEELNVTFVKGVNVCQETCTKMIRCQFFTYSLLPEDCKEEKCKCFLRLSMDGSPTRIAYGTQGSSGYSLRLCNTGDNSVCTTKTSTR
Description: Determination of the IC50 for plasma kallikrein
as §1, with “plasma kallikrein (Protogen)” for “KLK1 (Callbiochem)”, “H-DPro-Phe-Arg-AFC” for “H-DVal-Leu-Arg-AFC”

Chain of Human XIa (P03951 388-625): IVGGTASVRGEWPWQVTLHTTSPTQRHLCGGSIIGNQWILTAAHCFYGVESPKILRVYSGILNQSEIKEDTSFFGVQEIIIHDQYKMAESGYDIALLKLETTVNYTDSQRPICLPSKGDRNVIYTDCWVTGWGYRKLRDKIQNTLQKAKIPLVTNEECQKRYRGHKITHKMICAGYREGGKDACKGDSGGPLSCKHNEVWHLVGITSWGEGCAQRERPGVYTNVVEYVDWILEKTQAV
Chain of Human XIa (P03951 19-387 partner): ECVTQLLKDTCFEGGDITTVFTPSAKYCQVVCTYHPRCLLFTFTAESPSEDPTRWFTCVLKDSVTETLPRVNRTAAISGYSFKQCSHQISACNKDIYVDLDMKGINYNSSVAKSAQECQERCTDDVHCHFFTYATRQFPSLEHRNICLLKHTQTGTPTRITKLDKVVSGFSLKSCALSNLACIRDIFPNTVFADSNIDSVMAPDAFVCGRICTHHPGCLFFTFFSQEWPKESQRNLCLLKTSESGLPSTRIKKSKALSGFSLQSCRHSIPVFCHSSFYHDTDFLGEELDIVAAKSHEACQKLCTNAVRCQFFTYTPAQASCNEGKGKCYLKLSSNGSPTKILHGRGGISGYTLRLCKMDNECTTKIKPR

| Molecule | % Inhibition @ 40 μM (human FXIa) (Human XIa) | pIC50 (Human KLK1) | pIC50 (Human plasma kallikrein) |
| --- | --- | --- | --- |
| CCOc1cccc(CNC(=O)c2cn(Cc3ccc(Cn4cc(C)cn4)cc3)nc2C(F)(F)F)c1 [Example 6, N-[(3-ethoxyphenyl)methyl]-1-({4-[(4-methylpyrazol-1-yl)methyl]phenyl}methyl)-3-(trifluoromethyl)pyrazole-4-carboxamide] | 0% | < 5.00 |  |
| NC(=O)c1cccc(CNC(=O)c2cn(Cc3ccc(Cn4ccccc4=O)cc3)nc2C2CC2)c1 [Example 49, N-[(3-carbamoylphenyl)methyl]-3-cyclopropyl-1-({4-[(2-oxopyridin-1-yl)methyl]phenyl}methyl)pyrazole-4-carboxamide] | 0% |  |  |
| COc1cccc(CNC(=O)c2cn(Cc3ccc(Cn4ccccc4=O)cc3)nc2C2CC2)c1F [Example 52, 3-cyclopropyl-N-[(2-fluoro-3-methoxyphenyl)methyl]-1-({4-[(2-oxopyridin-1-yl)methyl]phenyl}methyl)pyrazole-4-carboxamide] | 1% |  |  |
| Nc1nn(Cc2ccc(Cn3ccccc3=O)cc2)cc1C(=O)NCc1ccc(OC(F)(F)F)cc1 [Example 58, 3-amino-1-({4-[(2-oxopyridin-1-yl)methyl]phenyl}methyl)-N-{[4-(trifluoromethoxy)phenyl]methyl}pyrazole-4-carboxamide] | 0% |  |  |
| N-[(2,4-dimethylphenyl)methyl]-1-({4-[(4-methylpyrazol-1-yl)methyl]phenyl}methyl)-3-(trifluoromethyl)pyrazole-4-carboxamide [Example 24] |  | < 5.00 | 6.14 |
| N-[(2,6-dimethylphenyl)methyl]-1-({4-[(4-methylpyrazol-1-yl)methyl]phenyl}methyl)-3-(trifluoromethyl)pyrazole-4-carboxamide [Example 25] |  | < 5.00 | 5.74 |
